Assay results published in patent US20160130257A1, “Macrocyclic proteasome inhibitors” (BROWN UNIVERSITY, priority 2013, published 2016).
Where two headings read alike, the source gives them in different places.

How the values were obtained:
[1] = target: Mycobacterium tuberculosis 20S peptidase (mtb 20S) (Mycobacterium tuberculosis, UniProt P9WHT9)
[2] = system: non-heme chloroperoxidase SCO0456 gene transcription; test: Peroxidase gene (SCO0456) transcription assay of proteasome inhibition in S. coelicolor; assay type: cell-based, Streptomyces coelicolor; conditions: for transcription of the proteasome-dependent peroxidase gene: S. coelicolor wild-type, RT-PCR / reporter
[3] = system: 60 different human tumor cell lines; assay type: cell-based
Excerpt: The In Vitro Cell Line Screening Project (IVCLSP) is a dedicated service providing direct support to the DTP anticancer drug discovery program. The screen utilizes 60 different human tumor cell lines, representing leukemia, melanoma and cancers of the lung, colon, brain, ovary, breast, prostate, and kidney. IVCLSP is unique because the complexity of a 60 cell line dose response produced by a given compound results in a biological response pattern, which can be utilized in pattern recognition algorithms. Using the pattern recognition algorithms, it is possible to assign a putative mechanism of action to a test compound, or to determine that the response pattern is unique and not similar to that of any of the standard prototype compounds included in the NCI database. The methodology of the in vitro cancer screen is available from the NIH.

mycobacterial proteasome = mycobacterial proteasome (Mycobacterium tuberculosis, UniProt P9WHT9); conditions: cited from earlier work
Sequence of mycobacterial proteasome (P9WHT9 58-291): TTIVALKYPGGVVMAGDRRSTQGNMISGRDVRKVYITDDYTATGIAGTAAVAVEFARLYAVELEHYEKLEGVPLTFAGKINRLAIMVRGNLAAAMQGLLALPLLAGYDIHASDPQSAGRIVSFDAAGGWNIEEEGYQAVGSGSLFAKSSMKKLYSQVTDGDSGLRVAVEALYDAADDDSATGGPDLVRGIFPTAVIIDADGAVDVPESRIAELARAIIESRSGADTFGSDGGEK
Sequence of mycobacterial proteasome (P9WHU1 whole entry partner): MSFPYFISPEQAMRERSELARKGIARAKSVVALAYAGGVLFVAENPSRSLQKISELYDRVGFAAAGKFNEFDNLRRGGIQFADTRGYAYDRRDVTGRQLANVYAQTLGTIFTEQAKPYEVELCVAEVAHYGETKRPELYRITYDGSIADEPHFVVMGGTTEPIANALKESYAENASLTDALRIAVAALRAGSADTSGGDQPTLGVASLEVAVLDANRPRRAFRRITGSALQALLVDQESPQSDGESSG

Sequence of Mycobacterium tuberculosis 20S peptidase (mtb 20S) (P9WHT9 58-291): as the sequence (P9WHT9 58-291) above
Sequence of Mycobacterium tuberculosis 20S peptidase (mtb 20S) (P9WHU1 whole entry partner): as the sequence (P9WHU1 whole entry partner) above

Structure (SMILES) | IC50 [1] [µM] | selective inhibition of M. tuberculosis proteasome compared to human proteasome (in words, from ratio of IC50 values) [1] | selectivity for the mycobacterial proteasome compared to the human enzyme [1] [fold] | selectivity of M. tuberculosis proteasome inhibition compared to Syringolin B [1] | transcription of the proteasome-dependent peroxidase gene [2] | inhibition of proteasomes (in words) (mycobacterial proteasome) | further results
COC(=O)C(NC(=O)N1CCCC1C(=O)NC1CCCCNC(=O)C=CC(Cc2c[nH]c3ccccc23)NC1=O)C(C)C (stereo not drawn) [Compound O] | 2.67 | selectively inhibits | 13.4 | more than 1,900 times | – | – | –
CC(C)C1/C=C\C(=O)NCCCCC(NC(=O)C(NC(=O)NC(C(=O)O)C(C)C)C(C)C)C(=O)N1 (stereo not drawn) [Syringolin B] | – | – | – | – | – | – | SCO0456 expression (gel electrophoresis of RNA samples) ([2]; wild-type S. coelicolor, 150 μg/ml, 5 hours, 30° C.): up regulated
COC(=O)C(NC(=O)NCC(=O)NC1CCCCNC(=O)C=CC(Cc2c[nH]c3ccccc23)NC1=O)C(C)C (stereo not drawn) [Compound P] | 0.000114 | selectively inhibits | 45.6 | more than 6,500 times | induced transcription of the peroxidase reporter gene | – | toxicity to human cells [3]: not toxic to human cells; killing of cancer cells ([3]; 60 cancer cell lines): does not kill cancer cells; inhibition of cancer cell proteasomes ([3]; inferred from 60 cell line screen): does not inhibit cancer cell proteasomes; selectivity for M. tuberculosis proteasome than human proteasome [1]: 46 times
CCCCCCCCC[C@@H](O)CC(=O)N[C@@H](CC(N)=O)C(=O)N[C@@H](CCC(N)=O)C(=O)N[C@H](C=O)CC(C)C [Fellutamide B] | – | – | – | – | – | inhibit the mycobacterial proteasomes | –
CC(C)C[C@H](NC(=O)[C@H](Cc1ccccc1)NC(=O)c1cnccn1)B(O)O [bortezomib, Bortezomib] | – | – | – | – | significantly up-regulated | inhibit the mycobacterial proteasomes | inhibition of proteasomes (in words) (mycobacterial proteasome; listed as Bortezomib): inhibits both bacterial and human proteasomes
